Reference: the NIST ThermoML archive (doi:10.1016/j.fluid.2015.04.017)

Test: refractive index (Na D-line) (dimensionless); xn = mol fraction of the nth substance listed
Settings: 101 kPa, Liquid, Standard Abbe refractometry

CCOC(=O)C(C)O (stereo not drawn) [DL-ethyl lactate] + CN1CCCC1=O
refractive index
Settings | x1 = 0.0999 | x1 = 0.2 | x1 = 0.3001 | x1 = 0.4 | x1 = 0.4997 | x1 = 0.6 | x1 = 0.7002 | x1 = 0.7999 | x1 = 0.8997 | x1 = 1
288.15 K | 1.46662 | 1.46071 | 1.45507 | 1.44952 | 1.44392 | 1.43817 | 1.43232 | 1.42648 | 1.42076 | 1.41537
293.15 K | 1.46449 | 1.45857 | 1.4529 | 1.44734 | 1.44172 | 1.43597 | 1.43014 | 1.4243 | 1.41855 | 1.41307
298.15 K | 1.46235 | 1.45645 | 1.45078 | 1.4452 | 1.43956 | 1.4338 | 1.42795 | 1.42209 | 1.41631 | 1.41076
303.15 K | 1.46021 | 1.45431 | 1.44863 | 1.44302 | 1.43738 | 1.43161 | 1.42575 | 1.41988 | 1.41406 | 1.40843
308.15 K | 1.45809 | 1.45218 | 1.44646 | 1.44084 | 1.43516 | 1.42939 | 1.42354 | 1.41768 | 1.41183 | 1.4061
313.15 K | 1.45594 | 1.45005 | 1.44428 | 1.43859 | 1.43288 | 1.4271 | 1.42126 | 1.41542 | 1.40957 | 1.40374
318.15 K | 1.45386 | 1.44796 | 1.44218 | 1.43648 | 1.43073 | 1.4249 | 1.41902 | 1.41312 | 1.40722 | 1.40136
323.15 K | 1.45178 | 1.44586 | 1.44006 | 1.43431 | 1.42854 | 1.42269 | 1.41679 | 1.41086 | 1.40492 | 1.39898

CCOC(=O)C(C)O (stereo not drawn) [DL-ethyl lactate] + Cc1ccccc1
refractive index
Settings | x1 = 0.1001 | x1 = 0.2001 | x1 = 0.3 | x1 = 0.4 | x1 = 0.4998 | x1 = 0.6001 | x1 = 0.7 | x1 = 0.7999 | x1 = 0.9 | x1 = 1
288.15 K | 1.48891 | 1.47943 | 1.47043 | 1.46159 | 1.45318 | 1.44507 | 1.43735 | 1.42997 | 1.42267 | 1.41537
293.15 K | 1.48604 | 1.47659 | 1.46764 | 1.45886 | 1.45051 | 1.44249 | 1.43485 | 1.42751 | 1.42032 | 1.41307
298.15 K | 1.48316 | 1.47373 | 1.46482 | 1.45613 | 1.44784 | 1.43988 | 1.43231 | 1.42508 | 1.41794 | 1.41076
303.15 K | 1.4803 | 1.47091 | 1.46199 | 1.45336 | 1.44515 | 1.43728 | 1.4298 | 1.42263 | 1.41555 | 1.40843
308.15 K | 1.47745 | 1.46812 | 1.45914 | 1.45069 | 1.44254 | 1.43474 | 1.42731 | 1.42018 | 1.41313 | 1.4061
313.15 K | 1.47462 | 1.46532 | 1.45628 | 1.44801 | 1.4399 | 1.43218 | 1.4248 | 1.41773 | 1.4107 | 1.40374
318.15 K | 1.47184 | 1.46262 | 1.45368 | 1.44558 | 1.4376 | 1.42987 | 1.42243 | 1.41531 | 1.40819 | 1.40136
323.15 K | 1.46909 | 1.45995 | 1.45131 | 1.44313 | 1.43523 | 1.42752 | 1.42006 | 1.41291 | 1.40578 | 1.39898
